This is an account of results in patent publication US9169260B2 (MERCK SHARP & DOHME CORP., priority 2011, dated 2015).

Chain of GST tagged IRAK-4 (Q9NWZ3 whole entry): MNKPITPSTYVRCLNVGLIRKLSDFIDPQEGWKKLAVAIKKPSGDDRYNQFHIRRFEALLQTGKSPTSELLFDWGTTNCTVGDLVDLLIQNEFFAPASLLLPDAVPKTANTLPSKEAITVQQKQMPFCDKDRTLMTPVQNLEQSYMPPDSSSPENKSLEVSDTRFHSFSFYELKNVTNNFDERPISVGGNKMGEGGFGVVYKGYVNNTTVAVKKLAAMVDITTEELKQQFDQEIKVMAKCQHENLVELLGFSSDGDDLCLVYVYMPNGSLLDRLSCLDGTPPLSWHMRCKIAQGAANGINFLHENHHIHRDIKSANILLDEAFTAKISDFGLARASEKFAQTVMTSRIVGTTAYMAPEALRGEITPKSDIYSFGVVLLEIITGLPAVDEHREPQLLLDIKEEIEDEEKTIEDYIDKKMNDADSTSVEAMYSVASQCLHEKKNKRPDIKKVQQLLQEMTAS

In the first experiment the target is GST tagged IRAK-4 (Homo sapiens (Human), UniProt Q9NWZ3). Kind of experiment: IRAK-4 Kinase Assay (IMAP fluorescence polarization). It is filed as biochemical. The note with it: 100 μM ATP, 30 minutes at 25° C. An outline of the steps:
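Activity was read by IMAP fluorescence polarization, where phosphopeptide binding to M(III) nanoparticles raises FP. The 30-minute, 25° C reaction used 100 μM ATP, 100 nM RP7030 substrate and 0.5 nM GST-IRAK-4 in pH 7.2 Tris buffer with MgCl2, DTT and Tween 20.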
On the technique in general: Polarisation of emitted light reports the rotation of a fluorescent probe.
The term IC50 denotes the concentration at which inhibition is half-maximal. `CCN(CC)S(=O)(=O)c1ccc(-c2cc(NC(=O)c3cnn4cccnc34)n(-c3ccc(C)cc3)n2)cc1` [Example 343, N-{3-[4-(diethylsulfamoyl)phenyl]-1-(4-methylphenyl)-1H-pyrazol-5-yl}pyrazolo[1,5-a]pyrimidine-3-carboxamide] displayed an IC50 below 0.1 µM.

“N3-(3-(1-(methylsulfonyl)piperidin-4-yl)-1-(p-tolyl)-1H-pyrazol-5-yl)pyrazolo[1,5-a]pyrimidine-3,6-dicarboxamide [Example 192]” showed an IC50 below 0.1 µM.

`Cc1ccc(-n2nc(C3CCN(Cc4cn[nH]c4)CC3)cc2NC(=O)c2cnn3cccnc23)cc1` [Example 233, N-{1-(4-methylphenyl)-3-[1-(1H-pyrazol-4-ylmethyl)piperidin-4-yl]-1H-pyrazol-5-yl}pyrazolo[1,5-a]pyrimidine-3-carboxamide] registered an IC50 below 0.1 µM.

In turn, `Cc1ccc(-n2nc(-c3ccc(CN4CCN(C)CC4)cc3)cc2NC(=O)c2cnn3cccnc23)cc1` [Example 144] yielded an IC50 below 0.1 µM.

Consider `Cc1ccc(-n2nc(C3CCN(C4CCN(c5ccc(F)cc5)C4)CC3)cc2NC(=O)c2cnn3cccnc23)nc1` (centres unmarked) [Example 266, N-[3-{1-[1-(4-fluorophenyl)pyrrolidin-3-yl]piperidin-4-yl]-1-(5-methylpyridin-2-yl)-1H-pyrazol-5-yl}pyrazolo-[1,5-a]pyrimidine-3-carboxamide], for which the IC50 was below 0.1 µM.

On to `Cc1ccc(-n2nc(C3CCN(C4CC5(CCCC5)C4)CC3)cc2NC(=O)c2cnn3cccnc23)cc1` [Example 257, N-[1-(4-methylphenyl)-3-(1-spiro[3.4]oct-2-ylpiperidin-4-yl)-1H-pyrazol-5-yl]pyrazolo[1,5-a]pyrimidine-3-carboxamide], for which the IC50 was below 0.1 µM.

As to `Cc1ccc(-n2nc(C3CCN(C4CCN(C)CC4)CC3)cc2NC(=O)c2cnn3cccnc23)nc1` [Example 275, N-[3-(1′-methyl-1,4′-bipiperidin-4-yl)-1-(5-methylpyridin-2-yl)-1H-pyrazol-5-yl]pyrazolo[1,5-a]pyrimidine-3-carboxamide], the IC50 was below 0.1 µM.

Consider `Cc1ccc(-n2nc(C3CCN(C4CCCOC4)CC3)cc2NC(=O)c2cnn3cc(Br)cnc23)cc1` (centres unmarked) [Example 109, 6-bromo-N-(3-(1-(tetrahydro-2H-pyran-3-yl)piperidin-4-yl)-1-(p-tolyl)-1H-pyrazol-5-yl)pyrazolo[1,5-a]pyrimidine-3-carboxamide], for which the IC50 was below 0.1 µM.

With `COc1ccc(-c2cc(NC(=O)c3cnn4cccnc34)n(-c3ccc(C)cc3)n2)cc1OC` [Example 133, N-(3-(3,4-dimethoxyphenyl)-1-(p-tolyl)-1H-pyrazol-5-yl)pyrazolo[1,5-a]pyrimidine-3-carboxamide], the IC50 is below 0.1 µM.

`C[C@@H](N)c1ccc(-n2nc(C3CCN(S(C)(=O)=O)CC3)cc2NC(=O)c2cnn3cccnc23)nc1` [Example 163, (R)—N-(1-(5-(1-aminoethyl)pyridin-2-yl)-3-(1-(methylsulfonyl)piperidin-4-yl)-1H-pyrazol-5-yl)pyrazolo[1,5-a]pyrimidine-3-carboxamide]: the IC50 was below 0.1 µM.

For `CNS(=O)(=O)c1ccc(-c2cc(NC(=O)c3cnn4cccnc34)n(-c3ccc(C)cc3)n2)cc1` [Example 347, N-{1-(4-methylphenyl)-3-[4-(methylsulfamoyl)phenyl]-1H-pyrazol-5-yl}pyrazolo[1,5-a]pyrimidine-3-carboxamide], the IC50 was below 0.1 µM.

The molecule `COc1ccc(-n2nc(C3CCN(S(=O)(=O)C4CC4)CC3)cc2NC(=O)c2cnn3cccnc23)c(F)c1` [Example 63, N-(3-(1-(cyclopropylsulfonyl)piperidin-4-yl)-1-(2-fluoro-4-methoxyphenyl)-1H-pyrazol-5-yl)pyrazolo[1,5-a]pyrimidine-3-carboxamide] had an IC50 below 0.1 µM.

Staying with this experiment, now noted: 100 μM ATP, 30 minutes at 25° C.; μM.
In turn, `Cc1ccc(-n2nc(-c3csc(N4CCOCC4)n3)cc2NC(=O)c2cnn3cccnc23)cc1` [Example 335, N-[1-(4-methylphenyl)-3-(2-morpholin-4-yl-1,3-thiazol-4-yl)-1H-pyrazol-5-yl]pyrazolo[1,5-a]pyrimidine-3-carboxamide] yielded a concentration for half-maximal inhibition (IC50) below 1 µM.

The molecule `Cc1ccc(-n2nc(C3CCCN(S(=O)(=O)C4CC4)C3)cc2NC(=O)c2cnn3cccnc23)cc1` (centres unmarked) [Example 44, N-(3-(1-(cyclopropylsulfonyl)piperidin-3-yl)-1-(p-tolyl)-1H-pyrazol-5-yl)pyrazolo[1,5-a]pyrimidine-3-carboxamide] gave an IC50 below 1 µM.

`Cc1ccc(-n2nc(C3CCCN(Cc4cncs4)C3)cc2NC(=O)c2cnn3cccnc23)cc1` (centres unmarked) [Example 284, N-{1-(4-methylphenyl)-3-[1-(1,3-thiazol-5-ylmethyl)piperidin-3-yl]-1H-pyrazol-5-yl}pyrazolo[1,5-a]pyrimidine-3-carboxamide] displayed an IC50 below 1 µM.

Molecule `Cc1ccc(-n2nc(C3CCN(S(=O)(=O)c4cn(C)c(C)n4)CC3)cc2NC(=O)c2cnn3cccnc23)cc1` [Example 386, N-[3-{1-[(1,2-dimethyl-1H-imidazol-4-yl)sulfonyl]piperidin-4-yl}-1-(4-methylphenyl)-1H-pyrazol-5-yl]pyrazolo[1,5-a]pyrimidine-3-carboxamide] returned an IC50 below 1 µM.

`CCCS(=O)(=O)N1CCC(c2cc(NC(=O)c3cnn4cccnc34)n(-c3ccc(C)cc3)n2)CC1` [Example 361, N-{1-(4-methylphenyl)-3-[1-(propylsulfonyl)piperidin-4-yl]-1H-pyrazol-5-yl}pyrazolo[1,5-a]pyrimidine-3-carboxamide] returned an IC50 below 1 µM.

`Cc1ccc(-n2nc(C3CCN(S(=O)(=O)c4ccccc4C#N)CC3)cc2NC(=O)c2cnn3cccnc23)cc1` [Example 362, N-[3-{1-[(2-cyanophenyl)sulfonyl]piperidin-4-yl}-1-(4-methylphenyl)-1H-pyrazol-5-yl]pyrazolo[1,5-a]pyrimidine-3-carboxamide]: the IC50 is below 1 µM.

`NC(=O)c1ccc(-n2nc(C3CCNCC3)cc2NC(=O)c2cnn3cccnc23)nc1` [Example 160, N-(1-(5-carbamoylpyridin-2-yl)-3-(piperidin-4-yl)-1H-pyrazol-5-yl)pyrazolo[1,5-a]pyrimidine-3-carboxamide] had an IC50 below 1 µM.

`Cc1ccc(-n2nc(C3CCN(S(=O)(=O)CCc4ccccc4)CC3)cc2NC(=O)c2cnn3cccnc23)cc1` [Example 395, N-[1-(4-methylphenyl)-3-{1-[(2-phenylethyl)sulfonyl]piperidin-4-yl}-1H-pyrazol-5-yl]pyrazolo[1,5-a]pyrimidine-3-carboxamide] returned an IC50 below 1 µM.

Molecule `Cc1ccc(-n2nc(C3CNC3)cc2NC(=O)c2cnn3cccnc23)cc1` [Example 82, N-(3-(azetidin-3-yl)-1-(p-tolyl)-1H-pyrazol-5-yl)pyrazolo[1,5-a]pyrimidine-3-carboxamide] yielded an IC50 above 1 µM.

Turning to `COc1ncc(CN2CC(c3cc(NC(=O)c4cnn5cccnc45)n(-c4ccc(C)cc4)n3)C2)cn1` [Example 317, N-[3-{1-[(2-methoxypyrimidin-5-yl)methyl]azetidin-3-yl}-1-(4-methylphenyl)-1H-pyrazol-5-yl]pyrazolo[1,5-a]pyrimidine-3-carboxamide], the IC50 was below 1 µM.

In turn, `Cc1ccc(-n2nc(C3CCN(C4CN(S(C)(=O)=O)C4)CC3)cc2NC(=O)c2cnn3cccnc23)cc1` [Example 244, N-[1-(4-methylphenyl)-3-{1-[1-(methylsulfonyl)azetidin-3-yl]piperidin-4-yl}-1H-pyrazol-5-yl]pyrazolo[1,5-a]pyrimidine-3-carboxamide] yielded an IC50 below 1 µM.
